Test results from PubChem BioAssay AID1918995 (Molecular Pharmacology Branch, DTP, NCI, 2023).

Tested on: 324938-238-R-J1-PDC complex spheroid growth, % test/control
Assay: Anticancer human tumor 324938-238-R-J1-PDC patient-derived bladder carcinoma cell line growth inhibition [AhR]
Details: for viability, T/C: stronger effect = lower value
Source text: Multicellular complex tumor spheroid response to aryl hydrocarbon receptor antagonists in combination with a variety of drugs and investigational agents in selected tumor cell lines
The current study was undertaken to assess response to aryl hydrocarbon receptor antagonists in combination with standard-of-care drugs and investigational agents in solid tumor complex spheroid models. Complex spheroids include a stromal component modeled by human endothelial cells (HUVEC) and fibroblasts modeled by human mesenchymal stem cells (MSCs). The concentration ranges selected for each drug and investigational agent were based upon clinically achievable concentrations if the clinical Cmax of the agent was known.
Compounds. The drugs and investigational agents: BAY 2416964 (NSC825713), GNF351 (NSC835774), CH-223191 (NSC835775), CPI-455 (NSC825282), aza-TdCyd (NSC777586), decitabine (NSC127716), belinostat (NSC758774), entinostat (NSC756642), pevonedistat (NSC761192), tazemetostat (NSC777109), talazoparib (NSC765396), olaparib (NSC753686), selinexor (NSC780203), nedisertib (M3814, NSC802822), bortezomib (NSC756655), venetoclax (NSC766270), doxorubicin (NSC123127), elimusertib (BAY189344, NSC800525), ceralasertib (AZD6738, NSC777638), TAK-243 (NSC785004), alisertib (NSC759677), etoposide (NSC141540), topotecan (NSC609699), eribulin (NSC707389), gemcitabine (NSC613327), carboplatin (NSC241240), cisplatin (NSC119875), and SN-38 (NSC673596) were obtained from the National Cancer Institute (NCI) Developmental Therapeutics Program Chemical Repository (32). The FDA-approved anticancer drug set is available from the Developmental Therapeutics Program at https://dtp.cancer.gov/organization/dscb/obtaining/available plates.htm. […] The stock solutions were prepared in dimethyl sulfoxide (DMSO, Sigma-Aldrich, St. Louis, MO, cat. D2650), except for the platinum compounds which were prepared in saline (Quality Biological, Gaithersburg, MD, cat. 114-055-101), at 800-fold the tested concentration and stored at -70 degrees C prior to their use. All drugs and investigational agents were tested over a range starting from a high concentration at or near the clinical Cmax and decreasing in half-log increments. If the clinical Cmax for an agent had not been determined, the highest concentration tested was 10 microM (Table 1).
Cell Culture. All cells were maintained in an incubator at 37 degrees C and 5% CO2 with 95% humidity. The PDC lines were cultured according to standard operating procedures established by the NCI PDMR (https://pdmr.cancer.gov). Briefly, all PDCs were thawed and cultured in Matrigel-coated flasks prepared with a working solution of 1X Ham's F-12 nutrient mix, without supplementation (Invitrogen, Waltham, MA, cat. 11765054), 100 U/mL penicillin-streptomycin (Invitrogen, cat. 15140122), and 2.5% Matrigel (Corning Inc., Corning, NY, cat. 354248) for the first three passages. All PDCs were cultured in complete DMEM/F-12 media containing advanced DMEM/F-12 (Invitrogen, cat. 12634028), 4.9% defined fetal bovine serum, heat inactivated (HyClone Laboratories Inc., Logan, UT, cat. SH30070.03HI), 389 ng/mL hydrocortisone (Sigma-Aldrich, cat. H4001), 9.7 ng/mL human EGF recombinant protein (Invitrogen, cat. PHG0313), 23.4 microg/mL adenine (Sigma-Aldrich, cat. A2786), 97.3 U/mL penicillin-streptomycin (Invitrogen, cat. 15140122), 1.9 mM L-glutamine (Invitrogen, cat. 25030081), and 9.7 microM Y-27632 dihydrochloride (Tocris Bioscience, Bristol, United Kingdom, cat. 1254). The PDCs were cultured in complete DMEM/F12 media without 10 microM Y-27632 dihydrochloride for at least two passages prior to the screen. The established cell lines NCI-H1341 and […] were cultured in DMEM/F-12, HEPES (Invitrogen, cat. 11330032), 5% defined fetal bovine serum (HyClone Laboratories Inc., cat. SH30070.03), ITS premix universal culture supplement [insulin (5 microg/mL), transferrin (5 microg/mL), and selenious acid (5 ng/mL)] […]

[1] = curve of first compound, second compound 0.1 µM
[2] = curve of first compound, second compound 0.316 µM
[3] = curve of first compound, second compound 1 µM
[4] = curve of first compound, second compound 3.16 µM
[5] = curve of first compound, second compound 10 µM
[6] = second compound 0.1 µM, first compound 0.0316 µM
[7] = second compound 0.1 µM, first compound 0.1 µM
[8] = second compound 0.1 µM, first compound 0.316 µM
[9] = second compound 0.1 µM, first compound 1 µM
[10] = second compound 0.1 µM, first compound 3.16 µM
[11] = second compound 0.1 µM, first compound 10 µM
[12] = second compound 0.316 µM, first compound 0.0316 µM
[13] = second compound 0.316 µM, first compound 0.1 µM
[14] = second compound 0.316 µM, first compound 0.316 µM
[15] = second compound 0.316 µM, first compound 1 µM
[16] = second compound 0.316 µM, first compound 3.16 µM
[17] = second compound 0.316 µM, first compound 10 µM
[18] = second compound 1 µM, first compound 0.0316 µM
[19] = second compound 1 µM, first compound 0.1 µM
[20] = second compound 1 µM, first compound 0.316 µM
[21] = second compound 1 µM, first compound 1 µM
[22] = second compound 1 µM, first compound 3.16 µM
[23] = second compound 1 µM, first compound 10 µM
[24] = second compound 3.16 µM, first compound 0.0316 µM
[25] = second compound 3.16 µM, first compound 0.1 µM
[26] = second compound 3.16 µM, first compound 0.316 µM
[27] = second compound 3.16 µM, first compound 1 µM
[28] = second compound 3.16 µM, first compound 3.16 µM
[29] = second compound 3.16 µM, first compound 10 µM
[30] = second compound 10 µM, first compound 0.0316 µM
[31] = second compound 10 µM, first compound 0.1 µM
[32] = second compound 10 µM, first compound 0.316 µM
[33] = second compound 10 µM, first compound 1 µM
[34] = second compound 10 µM, first compound 3.16 µM
[35] = second compound 10 µM, first compound 10 µM
[36] = second compound 0.1 µM, first compound 0.00316 µM
[37] = second compound 0.1 µM, first compound 0.01 µM
[38] = second compound 0.316 µM, first compound 0.00316 µM
[39] = second compound 0.316 µM, first compound 0.01 µM
[40] = second compound 1 µM, first compound 0.00316 µM
[41] = second compound 1 µM, first compound 0.01 µM
[42] = second compound 3.16 µM, first compound 0.00316 µM
[43] = second compound 3.16 µM, first compound 0.01 µM
[44] = second compound 10 µM, first compound 0.00316 µM
[45] = second compound 10 µM, first compound 0.01 µM
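Note: spheroids exposed to agents for seven days before viability read.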

Row | IC50 [1] [µM] | IC50 [2] [µM] | IC50 [3] [µM] | IC50 [4] [µM] | IC50 [5] [µM] | SMILES | viability, T/C [6] [%] | viability, T/C [7] [%] | viability, T/C [8] [%] | viability, T/C [9] [%] | viability, T/C [12] [%] | viability, T/C [13] [%] | viability, T/C [14] [%] | viability, T/C [15] [%] | viability, T/C [18] [%] | viability, T/C [19] [%] | viability, T/C [20] [%] | viability, T/C [24] [%] | viability, T/C [25] [%] | viability, T/C [30] [%] | viability, T/C [31] [%] | also measured
1 | 3.18 | 3.49 | 3.18 | 3.39 | 3.55 | O=C(C=Cc1cccc(S(=O)(=O)Nc2ccccc2)c1)NO + CC(CO)NC(=O)c1cc(-c2ccc(Cl)cc2)nn(-c2cnn(C)c2)c1=O | 103 | 108 | 96.1 | 67.4 | 94 | 92.7 | 85.4 | 73.5 | 93.2 | 93.9 | 89.3 | 74.6 | 83.9 | 70.6 | 78.8 | viability, T/C [10]: 56.7%; viability, T/C [11]: 3.34%; viability, T/C [16]: 56%; viability, T/C [17]: 10.6%; viability, T/C [21]: 65%; viability, T/C [22]: 55.1%; viability, T/C [23]: 6.82%; viability, T/C [26]: 77.4%; viability, T/C [27]: 67%; viability, T/C [28]: 54.4%; viability, T/C [29]: 4.74%; viability, T/C [32]: 76.9%; viability, T/C [33]: 71.6%; viability, T/C [34]: 55.4%; viability, T/C [35]: 2.36%
2 | 0.0277 | 0.0204 | 0.0219 | 0.0142 | 0.0168 | CC[C@@]1(O)C(=O)OCc2c1cc1n(c2=O)Cc2cc3c(CN(C)C)c(O)ccc3nc2-1 + CC(CO)NC(=O)c1cc(-c2ccc(Cl)cc2)nn(-c2cnn(C)c2)c1=O | 44.6 | 16.7 |  |  | 36.5 | 18.1 |  |  | 39.4 | 17.6 |  | 32.4 | 21 | 40.4 | 22.6 | viability, T/C (second compound 0.1 µM, first compound 0.000316 µM): 106%; viability, T/C (second compound 0.1 µM, first compound 0.001 µM): 103%; viability, T/C [36]: 89.7%; viability, T/C [37]: 80.2%; viability, T/C (second compound 0.316 µM, first compound 0.000316 µM): 102%; viability, T/C (second compound 0.316 µM, first compound 0.001 µM): 106%; viability, T/C [38]: 100%; viability, T/C [39]: 72.6%; viability, T/C (second compound 1 µM, first compound 0.000316 µM): 87.4%; viability, T/C (second compound 1 µM, first compound 0.001 µM): 97.9%; viability, T/C [40]: 89.6%; viability, T/C [41]: 73%; viability, T/C (second compound 3.16 µM, first compound 0.000316 µM): 74%; viability, T/C (second compound 3.16 µM, first compound 0.001 µM): 85.4%; viability, T/C [42]: 76.3%; viability, T/C [43]: 57.2%; viability, T/C (second compound 10 µM, first compound 0.000316 µM): 69.4%; viability, T/C (second compound 10 µM, first compound 0.001 µM): 69.7%; viability, T/C [44]: 61.4%; viability, T/C [45]: 59.6%

The remaining lines, values behind:

Row | SMILES | IC50 [1] [µM] | IC50 [2] [µM] | IC50 [3] [µM] | IC50 [4] [µM] | IC50 [5] [µM] | viability, T/C [6] [%] | viability, T/C [7] [%] | viability, T/C [8] [%] | viability, T/C [9] [%] | viability, T/C [12] [%] | viability, T/C [13] [%] | viability, T/C [14] [%] | viability, T/C [15] [%] | viability, T/C [18] [%] | viability, T/C [19] [%] | viability, T/C [20] [%] | viability, T/C [24] [%] | viability, T/C [25] [%] | viability, T/C [30] [%] | viability, T/C [31] [%] | also measured
3 | COc1cc(C2c3cc4c(cc3C(OC3OC5COC(C)OC5C(O)C3O)C3COC(=O)C23)OCO4)cc(OC)c1O (stereo unspecified) + CC(CO)NC(=O)c1cc(-c2ccc(Cl)cc2)nn(-c2cnn(C)c2)c1=O | 0.351 | 0.427 | 0.441 | 0.243 | 0.171 | 92.8 | 96 | 52.4 | 30.1 | 101 | 90.3 | 56.9 | 30.3 | 95.6 | 94.9 | 58.2 | 70.6 | 73.9 | 66.7 | 57 | viability, T/C [10]: 26.8%; viability, T/C [11]: 21.3%; viability, T/C [16]: 28.6%; viability, T/C [17]: 23.4%; viability, T/C [21]: 30.2%; viability, T/C [22]: 31.5%; viability, T/C [23]: 21.7%; viability, T/C [26]: 43.4%; viability, T/C [27]: 30.8%; viability, T/C [28]: 28.8%; viability, T/C [29]: 22.7%; viability, T/C [32]: 41.2%; viability, T/C [33]: 36.5%; viability, T/C [34]: 32.7%; viability, T/C [35]: 23.9%
4 | Nc1ncn(C2CC(O)C(CO)O2)c(=O)n1 (stereo unspecified) + Cc1cncc(-c2nc(NCCc3c[nH]c4ccccc34)c3ncn(C(C)C)c3n2)c1 | > 1 | > 1 | > 1 | > 1 | < 0.00316 | 101 | 85.2 | 128 | 103 | 135 | 92.9 | 80.8 | 161 | 127 | 125 | 84.8 | 104 | 76.9 | 6.15 | 3.98 | viability, T/C [36]: 120%; viability, T/C [37]: 86.4%; viability, T/C [38]: 111%; viability, T/C [39]: 103%; viability, T/C [40]: 93.4%; viability, T/C [41]: 107%; viability, T/C [21]: 98.2%; viability, T/C [42]: 83.5%; viability, T/C [43]: 76.6%; viability, T/C [26]: 100%; viability, T/C [27]: 112%; viability, T/C [44]: 4.98%; viability, T/C [45]: 1.77%; viability, T/C [32]: 4.54%; viability, T/C [33]: 7.74%
5 | Cc1cncc(-c2nc(NCCc3c[nH]c4ccccc34)c3ncn(C(C)C)c3n2)c1 |  |  |  |  |  |  |  |  |  |  |  |  |  |  |  |  |  |  |  |  | IC50 (compound alone, run of 07/18/2022): 5.31 µM [middle of 23 runs]
